One may read the MIC as the smallest concentration in the dilution series that meets the test's criterion for growth inhibition. Low readings indicate inhibition by little substance, high ones a need for much substance. As a reminder, the IC50 is the concentration that inhibits the measured activity by half. Lower therefore signals greater potency in that assay.

≈ marks a conversion by molar mass, not a printed value. A value given as a limit tells only on which side of the number the result lay.

Consider four compounds from ChEMBL document CHEMBL3399990, “Synthesis of mycothiol conjugate analogues and evaluation of their antimycobacterial activity” (Bioorg Med Chem Lett, 2015).

For experiment [1], the system named is Mycolicibacterium smegmatis. The experiment in a line: Bacteriostatic activity against Mycobacterium smegmatis after 96 hrs by resazurin fluorescence assay. It is filed as functional.
The nature of experiment [2]: Cytotoxicity against human HL60 cells after 48 hrs by MTT assay. It is filed as functional, cell-based. The following applies: HL-60, 48 h. A general note: Formazan colour is commonly taken as a measure of viable cells.
A further experiment has as its system 1A9. The experiment in a line: Cytotoxicity against human 1A9 cells after 48 hrs by MTT assay. It is filed as functional, cell-based. The following applies: 1A9, 48 h.

`N[C@@H](CSC(Cl)=C(Cl)Cl)C(=O)N[C@@H]1[C@@H](O)[C@H](O)[C@@H](CO)O[C@@H]1SC1CCCCC1` registered an MIC in experiment [1] of 250 µM (≈ 127 µg/mL). For the same compound, the results for the IC50 (in experiment [2]; in the experiment with 1A9) were 76 µM and 79 µM, respectively.

`N[C@@H](CSC(Cl)=C(Cl)Cl)C(=O)N[C@@H]1[C@@H](O)[C@H](O)[C@@H](CO)O[C@H]1SC1CCCCC1` returned a minimum inhibitory concentration (MIC) in experiment [1] of 250 µM (≈ 127 µg/mL). The IC50 in experiment [2] came out at 112 µM; with 1A9, 121 µM.

In experiment [1], `CC(C)(C)OC(=O)N[C@@H](CSC(Cl)=C(Cl)Cl)C(=O)N[C@@H]1[C@@H](O)[C@H](O)[C@@H](CO)O[C@@H]1SC1CCCCC1` yielded an MIC greater than 1000 µM. Moreover, the results for the IC50 (in experiment [2]; in the experiment on 1A9) were 60 µM and 103 µM, respectively.

`CC(C)(C)OC(=O)N[C@@H](CSC(Cl)=C(Cl)Cl)C(=O)N[C@@H]1[C@@H](O)[C@H](O)[C@@H](CO)O[C@H]1SC1CCCCC1` had an MIC in experiment [1] greater than 1000 µM. In addition, the IC50 in experiment [2] turned out to be 16.5 µM; in the experiment with 1A9 it was 33 µM.
